{"source": "patent US20240197664A1", "about": "“SIRTUIN OR KLOTHO ACTIVATOR OR EXPRESSION ENHANCER, NAD+ INCREASING AGENT, AND SENOLYTIC AGENT” (WAKUNAGA PHARMACEUTICAL CO., LTD., priority 2021, published 2024)", "key": {"Klotho gene": {"system": "Klotho gene", "assay": "Enhancement of Klotho gene expression in the kidney (in vivo), real-time PCR", "design": "species or system senescence-accelerated mice SAMP8", "conditions": "repeated oral administration for two weeks", "description": "(§1) Animals for evaluating the biological activity were bred as follows. Senescence-accelerated mice SAMP8 (male) for testing were purchased from Japan SLC, Inc. After purchase, the animals were acclimatized for one week and used as animals for the evaluation tests.\n(§2) After repeated oral administration of the sample prepared in the above (1) (a) to the animals for the evaluation tests in the above (2) for two weeks, kidneys of such animals were excised. The kidneys were crushed using an automatic tissue crusher, and then RNA was extracted using a TRIzol solution manufactured by Thermo Fisher Scientific K.K. cDNA was synthesized using PRIMEScript RT reagent Kit with gEraser manufactured by Takara. The synthesized cDNA was subjected to real-time PCR using KAPA SYBR Fast qPCR kit manufactured by Nippon Genetics Co., Ltd. Results are shown in FIG. 5."}, "NAD+": {"system": "NAD+", "assay": "NAD+ amount increasing action (in vivo), NAD+/NADH Assay Kit", "design": "species or system senescence-accelerated mice SAMP8", "conditions": "single oral dose (180 minutes later) and mixed with food for one month; cerebral cortices", "method": "as §1\nA single dose of the sample prepared in (1) (a) was orally administered to animals for the evaluation tests in the above (2), and then cerebral cortices of such animals were excised 180 minutes later. In addition, the sample prepared in the above (1) (a) was mixed with food and fed to animals for the evaluation tests in the above (2) for one month, and then cerebral cortices of such animals were excised. The NAD^+ amount in the cerebral cortices was measured using NAD^+/NADH Assay Kit manufactured by Dojindo Laboratories."}, "p21 gene": {"system": "p21 gene", "assay": "Suppression of senescent cell marker p21 gene expression in the kidney (in vivo), real-time PCR", "design": "species or system senescence-accelerated mice SAMP8", "conditions": "repeated oral administration for two weeks", "description": "as §1\n(§3) After repeated oral administration of the sample prepared in the above (1) (a) to the animals for the evaluation tests in the above (2) for two weeks, kidneys of such animals were excised. The kidneys were crushed using an automatic tissue crusher, and then RNA was extracted using a TRIzol solution manufactured by Thermo Fisher Scientific K.K.\n(§4) CDNA was synthesized using PRIMEScript RT reagent Kit with gEraser manufactured by Takara. The synthesized cDNA was subjected to real-time PCR using KAPA SYBR Fast qPCR kit manufactured by Nippon Genetics Co., Ltd. Results are shown in FIG. 6."}, "lipocalin-2 (NGAL)": {"system": "lipocalin-2 (NGAL)", "assay": "Inhibitory action on kidney injuries (in vivo), NGAL Western Blotting", "design": "species or system senescence-accelerated mice SAMP8", "conditions": "repeated oral administration for two weeks", "description": "as §1\n(§5) After repeated oral administration of the sample prepared in the above (1) (a) to the animals for the evaluation tests in the above (2) for two weeks, kidneys of such animals were excised. After the kidneys were crushed using an automatic tissue crusher, the cells were lysed with an RIPA cell lysis buffer manufactured by Millipore Corporation which was diluted 10-fold with purified water added with a protease inhibitor and a phosphatase inhibitor manufactured by Roche and then centrifuged (10,000 rpm, 10 min, 4° C.), and the supernatant was used as a cell extract. The cell extract was used for analysis by Western Blotting according to a conventional method. A kidney injury molecule (KIM-1) antibody (manufactured by R&D System) and a lipocalin-2 (NGAL) antibody (manufactured by Proteintech Group, Inc.), KIM-1 and NGAL being markers of kidney injuries, and an anti-GAPDH antibody (manufactured by Fujifilm Wako Pure Chemical Corporation) were used as antibodies."}, "[1]": {"system": "kidney injury molecule (KIM-1)", "assay": "Inhibitory action on kidney injuries (in vivo), KIM-1 Western Blotting", "design": "species or system senescence-accelerated mice SAMP8", "conditions": "repeated oral administration for two weeks", "description": "as §1, §5"}, "p16 gene": {"system": "p16 gene", "assay": "Suppression of senescent cell marker p16 gene expression in the kidney (in vivo), real-time PCR", "design": "species or system senescence-accelerated mice SAMP8", "conditions": "repeated oral administration for two weeks", "description": "as §1, §3, §4"}, "SIRT1": {"biological_target": "T1, SIRT1 (Mus musculus, UniProt Q923E4)", "T1 construct": "from tissue; host or cells: cerebral cortex of SAMP8 mice", "T1 sequence (Q923E4 1-737)": "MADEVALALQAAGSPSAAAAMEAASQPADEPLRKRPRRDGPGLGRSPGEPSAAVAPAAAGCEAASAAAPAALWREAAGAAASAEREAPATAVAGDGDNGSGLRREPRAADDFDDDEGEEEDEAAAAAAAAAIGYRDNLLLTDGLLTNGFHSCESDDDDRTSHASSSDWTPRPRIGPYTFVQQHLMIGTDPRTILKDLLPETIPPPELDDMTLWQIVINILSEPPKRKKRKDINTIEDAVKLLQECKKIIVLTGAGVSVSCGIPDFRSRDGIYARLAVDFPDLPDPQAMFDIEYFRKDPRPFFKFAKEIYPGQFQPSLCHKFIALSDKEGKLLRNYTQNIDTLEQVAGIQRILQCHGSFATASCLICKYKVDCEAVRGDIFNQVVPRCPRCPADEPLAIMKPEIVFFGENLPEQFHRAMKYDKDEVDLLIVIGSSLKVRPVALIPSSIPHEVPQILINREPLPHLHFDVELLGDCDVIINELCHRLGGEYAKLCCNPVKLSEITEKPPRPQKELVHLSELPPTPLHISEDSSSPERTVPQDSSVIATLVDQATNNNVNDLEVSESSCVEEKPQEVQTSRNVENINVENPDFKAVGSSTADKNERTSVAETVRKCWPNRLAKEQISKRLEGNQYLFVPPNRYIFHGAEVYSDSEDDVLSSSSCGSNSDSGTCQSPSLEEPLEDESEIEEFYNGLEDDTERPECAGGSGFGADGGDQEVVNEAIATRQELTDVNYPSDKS", "assay": "SIRT1 activation action (in vivo), SIRT1_GLO kit on cerebral cortex lysate", "design": "species or system senescence-accelerated mice SAMP8", "conditions": "single oral dose, 180 minutes after administration, vs control group", "method": "as §1\nA SIRT1_GLO kit manufactured by Promega Corporation was purchased to measure the sirtuins activity. A lysate of the cerebral cortex was placed in a 96-well plate, various reaction reagents were added, and then luminous intensity of luciferase was measured by a plate reader.\nA single dose of the sample prepared in the above (1) (a) was orally administrated to animals for the evaluation tests in the above (2), and then cerebral cortices of such animals were extracted 15, 30, 60, and 180 minutes later. The cerebral cortices were crushed using an automatic tissue crusher and lysed by adding a cell dissolution liquid. Centrifugation was performed and the sirtuins activity in the supernatant thereof was measured."}, "SIRT1 protein": {"system": "SIRT1 protein", "assay": "SIRT1 protein increasing action (in vivo), Western Blotting of hippocampus", "design": "species or system senescence-accelerated mice SAMP8", "conditions": "repeated oral administration for two weeks", "description": "as §1\n(§6) After repeated oral administration of the sample prepared in the above (1) (a) to animals for the evaluation tests in the above (2) for two weeks, hippocampi of such animals were excised. After the hippocampi were crushed using an automatic tissue crusher, the cells were lysed with a RIPA cell lysis buffer manufactured by Millipore Corporation which was diluted 10-fold with purified water added with combined protease/phosphatase inhibitors manufactured by Thermo Fisher Scientific K.K., and then centrifuged (10,000 rpm, 10 min, 4° C.), and the supernatant was used as a cell extract. The cell extract was used for analysis by Western Blotting according to a conventional method. An anti-SIRT1 antibody (manufactured by Biolegend) and an anti-β-actin antibody (manufactured by Fujifilm Wako Pure Chemical Corporation) were used as antibodies."}, "[2]": {"system": "senescence-accelerated mice SAMP8", "assay": "Cognitive/memory retention action (in vivo), passive avoidance test", "conditions": "mixed with food for four months, holding trial after two months", "method": "as §1\nThe sample prepared in the above (1) (a) was mixed with food and fed to animals for evaluation test in the above (2) for four months, and then a passive avoidance test was performed. The passive avoidance test is a test utilizing a habit that a mouse prefers a dark place, and on Day 1, a mouse already in a bright room was moved to a dark room while receiving an electrical shock (50 V/1 second), and the time it took for the mouse to enter the dark room was taken as response latency of an acquisition trial. After two months, the mouse was put in the bright room again and the time it took to move to the dark room (the response latency of a holding trial) was used as an index of memory."}, "SIRT1 gene": {"system": "SIRT1 gene", "assay": "Enhancement of SIRT1 gene expression in the kidney (in vivo), real-time PCR", "design": "species or system senescence-accelerated mice SAMP8", "conditions": "repeated oral administration for two weeks", "description": "as §1, §2"}, "p53 protein": {"system": "p53 protein", "assay": "Suppression of cellular senescence marker p53 protein in the hippocampus (in vivo), Western Blotting", "design": "species or system senescence-accelerated mice SAMP8", "conditions": "repeated oral administration for six weeks", "description": "as §1\nas §6, with “six” for “two”, “a protease inhibitor and a phosphatase inhibitor” for “combined protease/phosphatase inhibitors”, “Roche,” for “Thermo Fisher Scientific K.K.,”, “anti-p53” for “anti-SIRT1”, “Proteintech Group, Inc.)” for “Biolegend)”, “Medical and Biological Laboratories Co., Ltd.)” for “Fujifilm Wako Pure Chemical Corporation)”"}}, "data": [{"smiles": "CC=CSCC(N)C(=O)O", "note": "(centres unmarked) [S-1-propenylcysteine]", "values": [{"measurement": "expression of Klotho gene in the kidney", "setting": "Klotho gene", "value": "increased"}, {"measurement": "NAD+ amount", "setting": "NAD+", "value": "increased"}, {"measurement": "cells expressing p21 gene in the kidneys", "setting": "p21 gene", "value": "reduced"}, {"measurement": "NGAL protein mass in the kidney", "setting": "lipocalin-2 (NGAL)", "value": "reduced"}, {"measurement": "KIM-1 protein mass in the kidney", "setting": "[1]", "value": "reduced"}, {"measurement": "cells expressing p16 gene in the kidneys", "setting": "p16 gene", "value": "reduced"}, {"measurement": "Sirtuin activity in cerebral cortex", "setting": "SIRT1", "value": "increased"}, {"measurement": "SIRT1 protein mass in the hippocampus", "setting": "SIRT1 protein", "value": "increased"}, {"measurement": "aging-related decline in cognitive and memory functions (response latency of holding trial)", "setting": "[2]", "value": "ameliorated"}, {"measurement": "expression of SIRT1 gene in the kidney", "setting": "SIRT1 gene", "value": "increased"}, {"measurement": "p53 protein mass in the hippocampus", "setting": "p53 protein", "value": "reduced"}]}]}
